Values of other authors in PMC13207833, “Coumarin–Amino Acid Hybrids Used as Possible Multifactorial Anti-Inflammatory Agents” (International Journal of Molecular Sciences, 2026).

Target: T1, soybean lipoxygenase (SLOX-1) (Glycine max, UniProt P08170)
T1 construct: purchased Merck and Sigma-Aldrich
T1 sequence (P08170 1-839): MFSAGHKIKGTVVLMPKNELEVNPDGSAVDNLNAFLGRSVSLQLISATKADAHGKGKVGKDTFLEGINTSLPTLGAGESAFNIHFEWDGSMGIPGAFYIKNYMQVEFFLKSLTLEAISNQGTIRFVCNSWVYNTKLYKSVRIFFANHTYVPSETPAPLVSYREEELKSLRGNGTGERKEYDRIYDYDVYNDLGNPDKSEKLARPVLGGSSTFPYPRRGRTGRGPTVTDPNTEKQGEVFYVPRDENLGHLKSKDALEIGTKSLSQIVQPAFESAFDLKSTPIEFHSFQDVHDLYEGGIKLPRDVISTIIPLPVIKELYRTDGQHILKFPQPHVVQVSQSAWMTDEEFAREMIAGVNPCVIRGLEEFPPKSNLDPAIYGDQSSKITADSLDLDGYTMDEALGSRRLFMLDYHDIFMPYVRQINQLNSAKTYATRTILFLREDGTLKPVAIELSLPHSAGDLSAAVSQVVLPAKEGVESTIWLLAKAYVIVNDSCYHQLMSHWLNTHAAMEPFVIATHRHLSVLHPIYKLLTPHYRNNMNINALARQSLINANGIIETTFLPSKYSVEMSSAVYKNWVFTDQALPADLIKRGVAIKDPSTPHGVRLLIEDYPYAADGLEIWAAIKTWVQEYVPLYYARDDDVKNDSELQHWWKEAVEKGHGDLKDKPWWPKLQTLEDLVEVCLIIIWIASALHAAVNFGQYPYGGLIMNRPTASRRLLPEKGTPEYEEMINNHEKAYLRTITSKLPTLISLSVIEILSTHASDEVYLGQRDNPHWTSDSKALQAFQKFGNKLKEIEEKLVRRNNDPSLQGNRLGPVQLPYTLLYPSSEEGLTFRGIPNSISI
Parameters: method as in PMID 29329232
Conditions: value from earlier paper of the group

Row | IC50 | Compound
1 | 100 µM | O=C(O)COc1ccc2ccc(=O)oc2c1 [Compound 3, 2-((2-oxo-2H-chromen-7-yl)oxy)acetic acid]
2 | 100 µM | O=C(O)COc1ccc2oc(=O)ccc2c1 [Compound 2, 2-((2-oxo-2H-chromen-6-yl)oxy)acetic acid]
